In paper PMC12473123, “Structure–Function Insights into Quinuclidine-3-One BisQACs: Synthesis, Modulation of Bacterial Resistance, Structure–Activity Relationship, and Biological Profiling” (Pharmaceuticals, 2025):

Tests used:
Format in all cases: cell-based
[1] = test system: Bacillus cereus ATCC 14579; experiment: Broth microdilution MIC; conditions: ATCC14579, read-out: Minimum Inhibitory Concentrations (MIC), Bacillus cereus ATCC 14579
[2] = test system: Staphylococcus aureus ATCC 25923; experiment: Time-kill kinetics assay
Procedure: To assess the temporal dynamics of bacterial viability upon exposure to the test compounds, a time-kill kinetics assay was performed using the Gram-positive reference strain Staphylococcus aureus ATCC 25923. An overnight culture of the strain was subcultured into fresh, pre-warmed Mueller–Hinton broth (MHB) and incubated under aerobic conditions at 37 °C with agitation (220 rpm) until reaching the early exponential growth phase. The bacterial suspension was then standardized to an initial concentration of approximately 5 × 10^5 CFU/mL. […] Wells containing untreated bacterial cultures served as growth controls. Immediately after mixing, a 10 µL sample from each well was withdrawn, diluted in 990 µL of MHB, and serially diluted tenfold up to 10^−6. From each dilution, 20 µL was plated on MHB agar using a sterile loop to determine the initial bacterial count (time zero). The treated plates were incubated at 37 °C, and additional samples were collected at predetermined time points (2, 4, 6, 8, 12, and 24 h) following the same dilution and plating protocol. After 24 h of incubation at 37 °C, colonies were counted, and viable bacterial counts were expressed as log10 CFU/mL for each time point. Bactericidal activity was evaluated by plotting the log10 CFU/mL over time, providing a dynamic profile of the compound’s killing kinetics.

[3] = test system: Enterococcus faecalis ATCC 29212; experiment: Broth microdilution MIC; conditions: Enterococcus faecalis, ATCC29212, read-out: Minimum Inhibitory Concentrations (MIC), Enterococcus faecalis ATCC 29212
[4] = test system: panel of clinically relevant bacterial strains; experiment: Broth microdilution MIC, summary over the panel; conditions: Staphylococcus aureus (including MRSA), Listeria monocytogenes, Escherichia coli
[5] = test system: Staphylococcus aureus ATCC 25923; experiment: Flow cytometry cell viability (TO/PI staining); conditions: at the onset of treatment, concentration not given
Procedure: To gain further insights into the effects of the test compounds on bacterial viability, Staphylococcus aureus ATCC 25923 was analyzed using flow cytometry (NovoCyte Advanteon, Agilent Technologies, Santa Clara, CA, USA). Two independent overnight cultures were diluted 1:10 in fresh Mueller–Hinton broth (MHB) and incubated at 37 °C with shaking at 220 rpm until reaching the early exponential growth phase. Cells were then harvested by centrifugation (4500× g, 10 min, room temperature). One cell pellet was resuspended in a staining buffer composed of phosphate buffer (pH 7.4) supplemented with 1 mM EDTA and 0.1% Tween 20. […] Both preparations were adjusted to a final density of 1 × 10^6 CFU/mL and served as controls for fluorescence compensation alongside an unstained bacterial population. Bacterial viability was assessed using the BD^TM Cell Viability Kit (BD Biosciences, San Jose, CA, USA), which employs thiazole orange (TO) and propidium iodide (PI) for dual fluorescence labeling. […] Flow cytometric analysis enabled the discrimination of live (TO+/PI−), damaged (TO+/PI+), and dead (TO−/PI+) bacterial populations based on their fluorescence profiles, allowing for a time-resolved evaluation of compound-induced cytotoxicity.

Row | Structure (SMILES) | MIC [1] [µM] | time to rapid bactericidal activity ([2]; S. aureus ATCC 25923) [h] | time to complete killing ([2]; S. aureus ATCC 25923, 2 × MIC) [h] | MIC [3] [µM] | time to complete eradication / elimination of viable cells (CFU) ([2]; S. aureus ATCC 25923) [h] | MIC [4] [µM] | cells with signs of membrane damage (TO+/PI+) [5] | fully viable cells (TO+/PI−) [5] [%]
1 | CCCCCCCCCCCCCCCCNC1C[N+]2(CCC[N+]34CCC(CC3)C(NCCCCCCCCCCCCCCCC)C4)CCC1CC2 (racemic) [2(QC16)3, (±)-1,1′-(Propane-1,3-diyl) bis(3-(hexadecylamino)quinuclidinium) dibromide] | > 75 | ≤ 3 | 2 | > 75 |  |  |  | 
2 | CCCCCCCCCCCCCCCCNC1C[N+]2(CCCCCC[N+]34CCC(CC3)C(NCCCCCCCCCCCCCCCC)C4)CCC1CC2 (racemic) [2(QC16)6, (±)-1,1′-(Hexane-1,6-diyl) bis(3-(hexadecylamino)quinuclidinium) dibromide] |  |  |  |  | ≤ 2 | 5 to 38 | over 80% | < 5
